Laboratory results reported in patent publication US10335411B2, “Administration of ubiquitin-activating enzyme inhibitor and radiation” (Millennium Pharmaceuticals, Inc., priority 2014, dated 2019).

Assays:
[1] = tested on: LU-01-0266 xenograft; test: LU-01-0266 xenograft model, Compound 1 and radiation; assay type: in vivo, mice; conditions: for Classification / Synergy score: through Day 20
Description: The LU-01-0266 xenograft model is a human primary non-small cell lung tumor model. Approximately nine week old female BALB/c nude (Shanghai Sino-British SIPPR/BK Laboratory Animal Co., LTD.) mice were implanted subcutaneously with approximate 30 mm^3 LU-01-0266 tumor slices in the right flank. When the mean tumor volume reached approximately 173 mm^3, the animals were randomized into 10 treatment groups (n=8/group).
(§1) Compound 1 [((1R,2R,3S,4R)-2,3-dihydroxy-4-(2-(3-(trifluoromethylthio) ? phenyl)pyrazolo[1,5-a]pyrimidin-7-ylamino)cyclopentyl)methyl sulfamate] is formulated in 10% HPbCD in sterile water and administered intravenously on days 0, 3, 7, 10, 14, 17 in the LU-01-0266 and HN-13-0007 models and on days 0, 3, 8, 11, 15, 18 in the ST-02-0004 model and in the second study with the LU-01-0030 model. Compound 1 formulation was prepared weekly and stored at room temperature in the dark.
(§2) Beam-focused radiation was delivered using 2 Gray dosed on days 0, 1, 7, and 8 or on days 0, 3, 7, and 10 in the LU-01-0266 and HN-13-0007 models. In the ST-02-0004 model 2 Gray of radiation was delivered on days 0, 1, 3, and 8. A Rad Source RS-2000 X-ray irradiator was used for therapy (Rad Source). Before radiation, animals were anesthetized by i.p. injection using 1.0% sodium pentobarbital at 80 mg/kg (Vendor: Sigma). Focused radiation was applied to each mouse at 1 Gy/min.
(§3) Tumors were measured twice weekly using vernier calipers. Tumor volumes were calculated using the following formula: (0.5×[length×width^2]). Treatment groups and dosing/treatment schedules are indicated in Tables 1a, 2a, 3a, 4a, and 5a below. Tumor size and body weight are measured approximately twice a week for the duration of the study. Mice are euthanized when their tumor volume reached approximately 1000 mm^3. Tumor growth continued to be monitored after the dosing period in some studies. In Tables 1a, 2a, 3a, 4a, and 5a tumor volumes are shown for HN-13-0014 (day 21), LU-01-0030 (day 21), the second LU-01-0030 study (day 20), LU-01-0266 (day 20), ST-02-0004 (day 21) and FIN-13-0007 (day 24), respectively. Average tumor volume is reported as a function of time for selected groups of selected studies.
(§4) Measurements from day 0 to day 20, day 21 or day 24 are analyzed as specified in Tables below. All tumor volumes have a value of 1 added to them before log10 transformation. For each animal, the log tumor volume at day 0 is subtracted from the log tumor volume on the subsequent days. This difference vs. time is used to calculate an area under the curve (AUC) for each animal using the trapezoid rule. In instances when an animal in a treatment group is removed early from the study, the last observed tumor value is carried forward through all subsequent time points. The synergy score for the combination of agents A and B is defined as 100*(mean(AUCAB)−mean(AUCA)−mean(AUCB)+mean(AUCctl))/mean(AUCctl): where AUCAB, AUCA, AUCB, and AUCctl are the AUC values for animals in the combination group, the A group, the B group, and the control group, respectively. The standard error of the synergy score is computed based on the variation in the AUC values among the animals. […] If the P-value is above 0.05, then the combination is considered to be additive. If the P-value is below 0.05, and the synergy score is less than zero, then the combination is considered to be synergistic. If the P-value is below 0.05 and the synergy score was greater than zero, but the mean AUC for the combination was lower than the lowest mean AUC among the two single agent treatments, then the combination was sub-additive. If the P-value is below 0.05 and if the synergy score was greater than zero, and the mean AUC for the combination was greater than the mean AUC for at least one of the single agent treatments, then the combination was antagonistic.

[2] = tested on: ST-02-0004 xenograft; test: ST-02-0004 xenograft model, Compound 1 and radiation; assay type: in vivo, mice; conditions: for Classification / Synergy score: through Day 21
Description: The ST-02-0004 xenograft model is a human primary gastric cancer model. Approximately nine week old female BALB/c nude (Shanghai Sino-British SIPPR/BK Laboratory Animal Co., LTD.) mice were implanted subcutaneously with approximate 30 mm^3 ST-02-0004 tumor slices in the right flank. When the mean tumor volume reached approximately 162 mm^3, the animals were randomized into 6 treatment groups (n=8/group).
as §1, §2, §3, §4

[3] = 6.25 mg/kg Compound 1 + 2 Gy Radiation D0, 1, 7, 8
[4] = 6.25 mg/kg Compound 1 + 2 Gy Radiation D0, 3, 7, 10
[5] = 15 mg/kg Compound 1 + 2 Gy Radiation D0, 1, 7, 8
[6] = 15 mg/kg Compound 1 + 2 Gy Radiation D0, 3, 7, 10
[7] = 6.25 mg/kg compound 1 + 2 Gy Radiation D0, 1, 3, 8
[8] = 15 mg/kg compound 1 + 2 Gy Radiation D0, 1, 3, 8

Question: `NS(=O)(=O)OC[C@H]1C[C@@H](Nc2ccnc3cc(-c4cccc(SC(F)(F)F)c4)nn23)[C@H](O)[C@@H]1O` [Compound 1, ((1R,2R,3S,4R)-2,3-dihydroxy-4-(2-(3-(trifluoromethylthio)phenyl)pyrazolo[1,5-a]pyrimidin-7-ylamino)cyclopentyl)methyl sulfamate] was tested. Which “Tumor Volume Day 20” value ([1]; 6.25 mg/kg Compound 1 IV BIWx3 + 2 Gy Radiation Beam D 0, 1, 7, 8) did it give?
Answer: Its value is 181.6 mm^3.

Question: And the “Tumor Volume Day 20” value ([1]; 6.25 mg/kg Compound 1 IV BIWx3 + 2 Gy Radiation Beam D 0, 3, 7, 10)?
Answer: The value was 213.4 mm^3.

Question: And the “Tumor Volume Day 20” value ([1]; 6.25 mg/kg Compound 1 IV BIWx3 = D 0, 3, 7, 10, 14, 17, single agent)?
Answer: The value was 1004.5 mm^3.

Question: What about the “Tumor Volume Day 20” value ([1]; 15 mg/kg Compound 1 IV BIWx3 + 2 Gy Radiation Beam D 0, 1, 7, 8) of the same molecule?
Answer: The value was 77.4 mm^3.

Question: And the “Tumor Volume Day 20” value ([1]; 15 mg/kg Compound 1 IV BIWx3 + 2 Gy Radiation Beam D 0, 3, 7, 10)?
Answer: The value was 174.9 mm^3.

Question: And the “Tumor Volume Day 20” value ([1]; 15 mg/kg Compound 1 IV BIWx3 = D 0, 3, 7, 10, 14, 17, single agent)?
Answer: The value was 779 mm^3.

Question: What about the combination effect ([1]; Compound 1 with 2 Gy radiation) of the same molecule?
Answer: Its combination effect is “additive combination effect”.

Question: And the “anti-tumor activity compared to the vehicle control” value ([1]; single agent, IV at 6.25 and 15 mg/kg BIW for 3 weeks on Days 0, 3, 7, 10, 14, 17)?
Answer: The value was “weak anti-tumor activity”.

Question: And the Classification [1, 3]?
Answer: The Classification was “Additive (If the P-value is above 0.05, then the combination is considered to be additive)”.

Question: And the Synergy score [1, 3]?
Answer: Its Synergy score is 14.

Question: What about the Classification [1, 4] of the same molecule?
Answer: Its Classification is “Additive (If the P-value is above 0.05, then the combination is considered to be additive)”.

Question: What about the Synergy score [1, 4] of the same molecule?
Answer: The Synergy score was 15.

Question: What about the Classification [1, 5] of the same molecule?
Answer: Its Classification is “Additive (If the P-value is above 0.05, then the combination is considered to be additive)”.

Question: And the Synergy score [1, 5]?
Answer: Its Synergy score is −25.

Question: And the Classification [1, 6]?
Answer: Its Classification is “Additive (If the P-value is above 0.05, then the combination is considered to be additive)”.

Question: And the Synergy score [1, 6]?
Answer: The Synergy score was 12.

Question: And the “Tumor Volume Day 21” value ([2]; 6.25 mg/kg compound 1 IV BIWx3 + 2 Gy Radiation Beam D 0, 1, 3, 8)?
Answer: The value was 266.8 mm^3.

Question: What about the “Tumor Volume Day 21” value ([2]; 6.25 mg/kg compound 1 IV BIWx3 = D 0, 3, 8, 11, 15, 18, single agent) of the same molecule?
Answer: Its value is 697.1 mm^3.

Question: And the “Tumor Volume Day 21” value ([2]; 15 mg/kg compound 1 IV BIWx3 + 2 Gy Radiation Beam D 0, 1, 3, 8)?
Answer: Its value is 178.2 mm^3.

Question: And the “Tumor Volume Day 21” value ([2]; 15 mg/kg compound 1 IV BIWx3 = D 0, 3, 8, 11, 15, 18, single agent)?
Answer: Its value is 755.2 mm^3.

Question: What about the combination effect ([2]; Compound 1 at 6.25 mg/kg with 2 Gy of Radiation) of the same molecule?
Answer: The combination effect was “additive combination effect”.

Question: What about the combination effect ([2]; Compound 1 at 15 mg/kg with 2 Gy of Radiation) of the same molecule?
Answer: Its combination effect is “synergistic combination effect”.

Question: And the “anti-tumor activity compared to the vehicle control” value ([2]; single agent, IV at 6.25 and 15 mg/kg for 3 weeks on Days 0, 3, 8, 11, 15 and 18)?
Answer: The value was “no significant anti-tumor activity”.

Question: What about the Classification [2, 7] of the same molecule?
Answer: The Classification was “Additive (If the P-value is above 0.05, then the combination is considered to be additive)”.

Question: And the Synergy score [2, 7]?
Answer: Its Synergy score is 10.

Question: And the Classification [2, 8]?
Answer: The Classification was “Synergy (If the P-value is below 0.05, and the synergy score is less than zero, then the combination is considered to be synergistic)”.

Question: And the Synergy score [2, 8]?
Answer: Its Synergy score is −49.
